Measured values as given in PubChem BioAssay (NCI).
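Following 48 hours of exposure in 96-well plates, responses at five concentrations were used to interpolate endpoints linearly. Abbreviation: GI50, concentration required for 50% inhibition of growth. The concentration for full growth arrest is given as TGI.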

How the values were obtained:
Experiment in all cases: DTP human tumour cell line panel, 48 h
CAKI-1 renal = system: CAKI-1 renal
COLO 205 colon = system: COLO 205 colon
DU-145 prostate = system: DU-145 prostate
EKVX NSCLC = system: EKVX NSCLC
HOP-62 NSCLC = system: HOP-62 NSCLC
HT29 colon = system: HT29 colon
MALME-3M melanoma = system: MALME-3M melanoma
RPMI-8226 leukemia = system: RPMI-8226 leukemia
SF-295 CNS = system: SF-295 CNS
HCT-15 colon = system: HCT-15 colon

Row | Structure (SMILES) | TGI (CAKI-1 renal) [µM] | TGI (COLO 205 colon) [µM] | TGI (DU-145 prostate) [µM] | TGI (EKVX NSCLC) [µM] | TGI (HOP-62 NSCLC) [µM] | TGI (HT29 colon) [µM] | TGI (MALME-3M melanoma) [µM] | TGI (RPMI-8226 leukemia) [µM] | TGI (SF-295 CNS) [µM] | TGI (HCT-15 colon) [µM] | GI50 (CAKI-1 renal) [µM] | GI50 (COLO 205 colon) [µM] | GI50 (DU-145 prostate) [µM] | GI50 (EKVX NSCLC) [µM] | GI50 (HCT-15 colon) [µM] | GI50 (HOP-62 NSCLC) [µM] | GI50 (HT29 colon) [µM] | GI50 (MALME-3M melanoma) [µM] | GI50 (RPMI-8226 leukemia) [µM] | GI50 (SF-295 CNS) [µM]
1 | COC(=O)C1C(C(=O)OC)N(Cc2ccccc2)C(=O)N1Cc1ccccc1 (stereo not given) | > 100 | > 100 | > 100 | > 100 | > 100 | > 100 | > 100 | > 100 | > 100 |  |  |  |  |  |  |  |  |  |  | 
2 | O=C1C(Cl)=C(N2CCN(C3=C(Cl)C(=O)c4ccccc4C3=O)CC2)C(=O)c2ccccc21 | 3.48 | 3.1 | 14.4 | 4.91 | 25.5 | 5.27 | 3.32 | 14 | 21.5 | 3.07 |  |  |  |  |  |  |  |  |  | 
3 | C#CCCCCC#Cc1ccccc1C(=O)OC |  | > 100 |  | > 100 | > 100 | > 100 | > 100 | 41.5 | > 100 | > 100 |  |  |  |  |  |  |  |  |  | 
4 | CC1=C(O)C(=O)[C@@H]2O[C@@H]2C1=O | 16.7 | 16 |  | 33.9 | 100 | 36.6 | 17.2 | 16.5 | 72.1 | 22 |  |  |  |  |  |  |  |  |  | 
5 | Oc1ccc(/C=C/c2cc(O)cc(O)c2)cc1 | > 100 |  | 85.3 | > 100 | > 100 | > 100 |  | > 100 | > 100 | > 100 |  |  |  |  |  |  |  |  |  | 
6 | COCCOCOc1ccc(OCc2ccccc2)cc1 | > 100 | > 100 |  | 97.3 | > 100 | > 100 | > 100 | > 100 | > 100 | > 100 |  |  |  |  |  |  |  |  |  | 
7 | C/C(CCOC1CCCCO1)=C(\C)[Si](C)(C)C (stereo not given) |  | > 100 |  | > 100 |  | > 100 | > 100 | > 100 | > 100 | > 100 |  |  |  |  |  |  |  |  |  | 
8 | COc1ccc2[nH]c(O)c(/C=c3/cc4c(c(-c5cc(OC)c(OC)c(OC)c5)n3)=Nc3ccccc3-4)c2c1 | > 100 | 21.5 | > 100 | > 100 | > 100 | 7.05 | > 100 | 11.5 | > 100 | > 100 | > 100 | 3.67 | 88.2 | > 100 | 5.3 | 11.6 | 2.41 | 63.6 | 1.89 | 8.97
9 | CCCc1cc(=O)c2c(C)c3[nH]c4ccc(Cl)cc4c3c(C)c2[nH]1 | 4.37 | 3.89 | 18.9 | 7.72 | 6.15 | 3.31 | 23 |  | 3.96 | 3.37 |  |  |  |  |  |  |  |  |  | 
10 | CCN1c2ccccc2-n2c(C)nnc2-c2c1n[nH]c2-c1ccccc1 |  | > 100 | > 100 | > 100 |  | > 100 |  | 82.3 | > 100 | > 100 |  |  |  |  |  |  |  |  |  | 
11 | C=CCN1C(=O)/C(=C/c2ccccc2)N=C1SC1OC(COC(=O)c2ccccc2)C(OC(=O)c2ccccc2)C1OC(=O)c1ccccc1 (stereo not given) | > 100 | > 100 | > 100 | > 100 | > 100 |  | > 100 | 87.9 | > 100 | > 100 |  |  |  |  |  |  |  |  |  | 
